Data: PubChem BioAssay AID1918955 (Molecular Pharmacology Branch, DTP, NCI, 2023)
Values joined by “and” are separate entries in the source; they are usually repeats but may differ in a detail not shown here. Equal entries are not always repeated.

Test system: NCI/ADR-RES complex spheroid viability
Experiment: Anticancer human tumor NCI/ADR-RES cell line growth inhibition;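 note: spheroids exposed to compounds for 7 days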;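 for viability, T/C: 100% = DMSO vehicle treated spheroids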
Details: for viability, T/C: stronger effect = lower value
Text: Multicellular complex tumor spheroid response to LSD1 Inhibitor Iadademstat in combination with a variety of drugs and investigational agents in selected tumor cell lines
The current study was undertaken to assess response to LSD1 inhibitors in combination with standard-of-care drugs and investigational agents in solid tumor complex spheroid models as well as in the K-562 leukemia. Complex spheroids include a stromal component modeled by human endothelial cells (HUVEC) and fibroblasts modeled by human mesenchymal stem cells (MSCs). The concentration ranges selected for each drug and investigational agent were based upon clinically achievable concentrations if the clinical Cmax of the agent was known.
Compounds. The drugs and investigational agents used in this study are listed on Table 1. All of the agents used, including staurosporine (NSC755774) and gemcitabine (NSC613327), were obtained from the Developmental Therapeutics Program, NCI. FDA-approved anticancer drugs are available from the NCI at http://dtp.nci.nih.gov/branches/dscb/oncology_drugset_explanation.html. Drugs and investigational agents were >95% pure by proton nuclear magnetic resonance (NMR) and liquid chromatography/mass spectrometry (LC/MS). Stock solutions were prepared at 400x in DMSO, stored at -70 degrees C, and diluted in fresh medium prior to their use. The final concentration of DMSO in cell culture wells never exceeded 0.25% (v/v). The FDA-approved anticancer drug set is available from the Developmental Therapeutics Program at https://dtp.cancer.gov/organization/dscb/obtaining/available_plates.htm. All drugs and investigational agents were tested over a range starting from a high concentration at or near the clinical Cmax and decreasing in half-log increments. If the clinical Cmax for an agent had not been determined, the highest concentration tested was 10 microM.
Cell Lines. The patient-derived cancer cell (PDC) lines: 292921-168-R-J2-PDC, K24384-001-R-PDC, and 521955-158-R2-J5-PDC pancreatic carcinomas, 556581-035-R-J1 ovarian carcinoma, 324938-238-R-J1-PDC, 855422-203-R-J1-PDC and 883617-216-R-J1-PDC urothelial bladder carcinomas, 743489-274-T-PDC renal cell carcinoma, 138582-R-J1 Merkel cell tumor, K60290-347-R-J1 and K57222-313-R-J1-PDC glioblastomas, 653999-131-R-J2-PDC, LG0703-F948-PDC, and 349418-098-R-PDC non-small cell lung carcinomas, 885512-296-R-J2-PDC, 171881-019-R-J1-PDC breast carcinomas and 186277-243-T-J2-PDC and 233499-124-R-J2-PDC colon carcinomas were obtained from the NCI Patient-Derived Models Repository (PDMR, https://pdmr.cancer.gov). The established cell lines NCI/ADR-RES (RRID:CVCL_14520 and OVCAR-5 (RRID:CVCL_1628) ovarian carcinomas, 786-O (RRID:CVCL_1051) and A498 (RRID:CVCL_A498) renal cell carcinoma, NCI-H211 (ATCC, cat. CRL-5824; RRID:CVCL_1529), NCI-H196 (ATCC, cat. CRL-5823, RRID:CVCL_1509), SW 1271 (ATCC, cat. CRL-2177, RRID:CVCL_1716) and NCI-H1876 (ATCC, cat. CRL-5902, RRID:CVCL_1503) small cell lung carcinomas, MDA-MB-231 (RRID:CVCL_0062) and MDA-MB-468 (RRID:CVCL_0419)breast carcinomas (10-12). Pooled donor human umbilical vein endothelial cells (HUVEC, Lonza, cat. CC-2519) and human mesenchymal stem cells (hMSC, Lonza, cat. PT-2501) were purchased from Lonza (Walkersville, MD).
Cell Culture. All cells were maintained in an incubator at 37 degrees C and 5% CO2 with 95% humidity. The PDC lines were cultured according to standard operating procedures established by the NCI PDMR (https://pdmr.cancer.gov). Briefly all PDCs were thawed and cultured in Matrigel-coated flasks prepared with a working solution of 1X Ham's F-12 nutrient mix, without supplementation (Invitrogen, Waltham, MA, cat. 11765054), 100 U/mL penicillin-streptomycin (Invitrogen, cat. 15140122), and 2.5% Matrigel (Corning Inc., Corning, NY, cat. 354248) for the first three passages. […]

SMILES	IC50 (curve of compound)	viability, T/C (compound 0.00316 µM)	viability, T/C (compound 0.01 µM)	viability, T/C (compound 0.0316 µM)	viability, T/C (compound 0.1 µM)	viability, T/C (compound 0.316 µM)	viability, T/C (compound 1 µM)	viability, T/C (compound 3.16 µM)	viability, T/C (compound 10 µM)	viability, T/C (compound 0.00949 µM)	viability, T/C (compound 0.03 µM)	viability, T/C (compound 0.0949 µM)	viability, T/C (compound 0.3 µM)	also measured
CC1(C)CCC(CN2CCN(c3ccc(C(=O)NS(=O)(=O)c4ccc(NCC5CCOCC5)c([N+](=O)[O-])c4)c(Oc4cnc5[nH]ccc5c4)c3)CC2)=C(c2ccc(Cl)cc2)C1	> 10 µM			99.8% and 108%	108% and 106%	101% and 106%	104% and 105%	101% and 104%	94.1% and 90%					
CC1COCCN1c1cc(-c2ccnn2C)c2ccnc(-c3ccn[nH]3)c2n1 (centres undefined)	0.013 µM and 0.00727 µM	89.5% and 71.9%	61.3% and 41.6%	11.2% and 7.14%	3.93% and 1.95%	2.2% and 2.13%	4.12% and 1.96%							
CC1COCCN1c1cc(C2(S(C)(=N)=O)CC2)nc(-c2ccnc3[nH]ccc23)n1 (centres undefined)	> 10 µM and 7.48 µM			101% and 106%	96% and 110%	93.8% and 98.5%	91.3% and 86.3%	72% and 71.1%	57.2% and 43.1%					
CCN(c1cc(-c2ccc(CN3CCOCC3)cc2)cc(C(=O)NCc2c(C)cc(C)[nH]c2=O)c1C)C1CCOCC1	> 3 µM									99.6% and 106%	98.7% and 102%	98.2% and 104%	99% and 97.8%	viability, T/C (compound 0.949 µM): 91.6% and 97.3%; viability, T/C (compound 3 µM): 86.3% and 88%
CC[C@@]1(O)C(=O)OCc2c1cc1n(c2=O)Cc2cc3c(CN(C)C)c(O)ccc3nc2-1	0.00718 µM and 0.00706 µM	78.6% and 75.9%	39.1% and 39.4%	7.88% and 7.23%	2.74% and 2.23%									viability, T/C (compound 0.000316 µM): 102% and 96.9%; viability, T/C (compound 0.001 µM): 102% and 100%
COc1cc(C2c3cc4c(cc3C(OC3OC5COC(C)OC5C(O)C3O)C3COC(=O)C23)OCO4)cc(OC)c1O (centres undefined)	> 3 µM									96.8% and 107%	100% and 104%	96.4% and 104%	95.8% and 105%	viability, T/C (compound 0.949 µM): 96.1% and 98.4%; viability, T/C (compound 3 µM): 93.1% and 90.2%
COc1ccc([C@@H](O)c2cc(-c3ncnc4cc(N5CCOCC5)ccc34)c(F)cc2Cl)nn1	3.81 µM and 2.98 µM			106%	99.9% and 99.3%	87.1% and 94.3%	77.2% and 72.6%	52.9% and 49.2%	28.3% and 28%					
Cn1ncnc1C1c2n[nH]c(=O)c3cc(F)cc(c23)NC1c1ccc(F)cc1 (centres undefined)	> 0.1 µM	106% and 103%	99.4% and 99.5%	96.5% and 100%	105% and 101%									viability, T/C (compound 0.000316 µM): 103% and 101%; viability, T/C (compound 0.001 µM): 109% and 102%
NC1CC1c1ccc(-c2cccc(O)c2)cc1 (centres undefined)					99.3% and 104%	105% [middle of 24 runs]	99.4% [middle of 24 runs]	97.5% [middle of 25 runs]	86.9% [middle of 25 runs]					IC50 (compound alone, run of 12/07/2021): > 10 µM
NC1CCC(NC2CC2c2ccccc2)CC1 (centres undefined)					104% [middle of 25 runs]	110% and 108% (2×)	102% [middle of 24 runs]	99.8% [middle of 25 runs]	91.5% [middle of 23 runs]					IC50 (compound alone, run of 11/29/2021): > 10 µM
Nc1ccn(C2OC(CO)C(O)C2(F)F)c(=O)n1 (centres undefined)	< 0.000949 µM									3.95% and 4.1%	3.55% and 2.02%	3.71% and 1.86%	1.91% and 1.26%	viability, T/C (compound 0.000949 µM): 8.59% and 3.05%; viability, T/C (compound 0.003 µM): 3.76% and 3.9%
Nc1ncn(C2CC(O)C(CO)O2)c(=O)n1 (centres undefined)	0.0708 µM and 0.0434 µM	95.5% and 91.8%	89.1% and 76.3%	71% and 57.2%	40.1% and 33.6%	27.4% and 18.6%	19.8% and 12.7%							
Nc1ncn(C2CC(O)C(CO)S2)c(=O)n1 (centres undefined)	0.0141 µM and 0.00682 µM									53.8% and 40.1%	38.7% and 27.5%	21.2% and 11.8%	6.02% and 3.16%	viability, T/C (compound 0.000949 µM): 86.4% and 84.4%; viability, T/C (compound 0.003 µM): 75.9% and 67.9%

Now from value to compound, other results behind:

IC50 (curve of compound)	SMILES	viability, T/C (compound 0.00316 µM)	viability, T/C (compound 0.01 µM)	viability, T/C (compound 0.0316 µM)	viability, T/C (compound 0.1 µM)	viability, T/C (compound 0.316 µM)	viability, T/C (compound 1 µM)	viability, T/C (compound 3.16 µM)	viability, T/C (compound 10 µM)	viability, T/C (compound 0.00949 µM)	viability, T/C (compound 0.03 µM)	viability, T/C (compound 0.0949 µM)	viability, T/C (compound 0.3 µM)	also measured
0.00931 µM and 0.00996 µM	CC(C)CC(NC(=O)C(Cc1ccccc1)NC(=O)c1cnccn1)B(O)O (centres undefined)	92.5% and 93.3%	47.3% and 51.2%	5.97% and 5.35%	2.36% and 0.51%									viability, T/C (compound 0.000316 µM): 96.1% and 106%; viability, T/C (compound 0.001 µM): 102% and 107%
0.025 µM and 0.021 µM	CC(C)CC(NC(=O)CNC(=O)c1cc(Cl)ccc1Cl)B1OC(=O)CC(CC(=O)O)(C(=O)O)O1 (centres undefined)	103% and 105%	71.3% and 79.3%	45.7% and 33.5%	4.13% and 1.05%									viability, T/C (compound 0.000316 µM): 98% and 97.7%; viability, T/C (compound 0.001 µM): 105% and 96.7%
> 10 µM	CC(C)c1c(-c2ccccc2)nc2c(C#N)c[nH]n2c1=O			103% and 102%	99.6% and 94.7%	96.5% and 96.3%	104%	98.6% and 93.1%	94.6% and 96.8%					
< 0.000949 µM	CCc1c2c(nc3ccc(O)cc13)-c1cc3c(c(=O)n1C2)COC(=O)[C@]3(O)CC									0.57% and 0.82%	6.31% and 0.48%	0.34% and 0.47%	0.83% and 0.64%	viability, T/C (compound 0.000949 µM): 4.28% and 3.34%; viability, T/C (compound 0.003 µM): 2.36% and 1.64%
0.0169 µM and 0.01 µM	COc1cc(Nc2ncc3c(n2)-c2ccc(Cl)cc2C(c2c(F)cccc2OC)=NC3)ccc1C(=O)O	95.4% and 84.5%	64.5% and 50%	32.7% and 30%	22.9% and 20.4%	22.6% and 16.1%	19.7% and 15.5%							
0.605 µM and 0.791 µM	NS(=O)(=O)OCC1CC(n2ccc3c(NC4CCc5ccccc54)ncnc32)CC1O (centres undefined)									94% and 94.6%	91% and 98.8%	87.3% and 86.9%	72.3% and 74.8%	viability, T/C (compound 0.949 µM): 35.7% and 45.3%; viability, T/C (compound 3 µM): 14.5% and 17.2%
1.47 µM and 0.9 µM	Nc1ccccc1NC(=O)c1ccc(CNC(=O)OCc2cccnc2)cc1									105% and 99.8%	98.3% and 100%	88.4% and 94.4%	81.6% and 75.8%	viability, T/C (compound 0.949 µM): 58.7% and 49.3%; viability, T/C (compound 3 µM): 33.9% and 26.6%
0.0697 µM and 0.0725 µM	O=C(C=Cc1cccc(S(=O)(=O)Nc2ccccc2)c1)NO									95.3% and 96%	81.6% and 75.3%	36.6% and 42%	16.7% and 17.2%	viability, T/C (compound 0.949 µM): 7.77% and 6.17%; viability, T/C (compound 3 µM): 2.68% and 1.54%
0.00578 µM and 0.00449 µM	O=C(C=Cn1cnc(-c2cc(C(F)(F)F)cc(C(F)(F)F)c2)n1)NNc1cnccn1	69.8% and 61.6%	28.8% and 22.1%	20.3% and 16.5%	10.6% and 5.99%	6.07% and 1.5%	2.27% and 0.91%							
> 10 µM	O=C(c1cc(Cc2n[nH]c(=O)c3ccccc23)ccc1F)N1CCN(C(=O)C2CC2)CC1			102%	102% and 99.6%	104% and 102%	105% and 97.3%	90.7% and 95.4%	89.6% and 85%					
